Experimental data published in patent US6872730B2, “Substituted benzofurans and benzothiophenes, methods of making and methods of use as integrin antagonists” (3-Dimensional Pharmaceuticals, Inc., priority 2001, dated 2005).

biological target: T1, human αvβ3 (Homo sapiens, UniProt P05106+P06756); assay: αvβ3-vitronectin assay; type: binding; conditions: ELISA plate coated with human αvβ3, biotinylated human vitronectin, room temperature; read-out: IC50 for inhibition of the αvβ3-vitronectin interaction
T1 construct: purchased Chemicon CC1019
Method: The assay is based on the method of Dennis (Dennis, M. S., et al., Proteins 15: 312-321 (1993)). Costar 9018 flat-bottom 96-well ELISA plates were coated overnight at 4° C. with 100 μL/well of 10 μg/mL human fibrinogen (Calbiochem 341578) in 20 mM Tris-HCl pH 7.5, 150 mM NaCl, 2 mM CaCl2, 0.02% NaN3 (TAC buffer), and blocked for 1 hr at 37° C. with 150 μL/well of TAC buffer containing 0.05% Tween 20 and 1% bovine serum albumin (TACTB buffer). After washing 3 times with 200 μL/well of 10 mM Na2 HPO4 pH 7.5, 150 mM NaCl, 0.01% Tween 20 (PBST buffer), controls or test compound (0.027-20.0 μM) were mixed with 40 μg/mL human GPIIbIIIa (Enzyme Research Laboratories) in TACTB buffer, and 100 μL/well of these solutions were incubated for 1 hr at 37° C. The plate was then washed 5 times with PBST buffer, and 100 μL/well of a monoclonal anti-GPIIbIIIa antibody in TACTB buffer (1 μg/mL, Enzyme Research Laboratories MabGP2b3a) was incubated at 37° C. for 1 hr. After washing (5 times with PBST buffer), 100 μL /well of goat anti-mouse IgG conjugated to horseradish peroxidase (Kirkegaard & Perry 14-23-06) was incubated at 37° C. for 1 hr (25 ng/mL in PBST buffer), followed by a 6-fold PBST buffer wash. The plate was developed by adding 100 μL/well of 0.67 mg o-phenylenediamine dihydrochloride per mL of 0.012% H2O2, 22 mM sodium citrate, 50 mM sodium phosphate, pH 5.0 at room temperature. The reaction was stopped with 50 μL/well of 2M H2SO4, and the absorbence at 492 nm was recorded. Percent (%) inhibition was calculated from the average of three separate determinations relative to buffer controls (no test compound added), and a four parameter fit (Marquardt, D. W., J. Soc. Indust. Appl. Math. 11:431-441 (1963)) was used to estimate the half maximal inhibition concentration (IC50).
The assay was based on the method of Niiya (Niiya, K., et al., Blood 70:475-483 (1987)). […] Following a 5-fold PBST buffer wash, the plate was developed and results were calculated as described for the fibrinogen-IIbIIIa assay.

T1 sequence (P06756 31-889 limits assumed): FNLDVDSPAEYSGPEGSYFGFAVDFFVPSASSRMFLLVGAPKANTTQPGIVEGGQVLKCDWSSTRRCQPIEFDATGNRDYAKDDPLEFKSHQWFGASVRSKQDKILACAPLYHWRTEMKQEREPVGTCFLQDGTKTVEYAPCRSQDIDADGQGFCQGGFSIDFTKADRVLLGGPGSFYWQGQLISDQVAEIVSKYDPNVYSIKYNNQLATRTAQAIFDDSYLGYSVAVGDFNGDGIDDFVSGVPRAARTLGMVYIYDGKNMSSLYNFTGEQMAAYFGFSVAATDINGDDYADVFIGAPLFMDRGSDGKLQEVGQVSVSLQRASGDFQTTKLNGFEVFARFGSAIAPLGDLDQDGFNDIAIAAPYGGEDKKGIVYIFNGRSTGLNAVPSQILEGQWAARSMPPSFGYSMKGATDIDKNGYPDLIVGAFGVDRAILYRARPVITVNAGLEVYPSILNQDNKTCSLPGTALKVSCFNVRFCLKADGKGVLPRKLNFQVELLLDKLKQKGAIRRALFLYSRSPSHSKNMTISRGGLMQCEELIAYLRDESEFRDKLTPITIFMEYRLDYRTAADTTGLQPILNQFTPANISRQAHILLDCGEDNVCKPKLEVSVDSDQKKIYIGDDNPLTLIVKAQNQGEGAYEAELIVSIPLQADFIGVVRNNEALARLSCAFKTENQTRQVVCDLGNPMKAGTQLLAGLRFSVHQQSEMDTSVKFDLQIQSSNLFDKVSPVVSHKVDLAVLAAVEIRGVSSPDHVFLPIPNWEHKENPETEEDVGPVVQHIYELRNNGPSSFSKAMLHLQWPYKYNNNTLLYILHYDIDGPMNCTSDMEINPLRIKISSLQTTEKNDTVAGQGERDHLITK
T1 sequence (P06756 891-1048 partner limits assumed): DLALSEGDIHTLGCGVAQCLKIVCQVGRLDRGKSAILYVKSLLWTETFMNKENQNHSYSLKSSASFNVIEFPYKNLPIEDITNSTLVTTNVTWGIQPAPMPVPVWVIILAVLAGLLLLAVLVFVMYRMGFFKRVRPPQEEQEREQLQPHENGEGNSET
T1 sequence (P05106 27-788): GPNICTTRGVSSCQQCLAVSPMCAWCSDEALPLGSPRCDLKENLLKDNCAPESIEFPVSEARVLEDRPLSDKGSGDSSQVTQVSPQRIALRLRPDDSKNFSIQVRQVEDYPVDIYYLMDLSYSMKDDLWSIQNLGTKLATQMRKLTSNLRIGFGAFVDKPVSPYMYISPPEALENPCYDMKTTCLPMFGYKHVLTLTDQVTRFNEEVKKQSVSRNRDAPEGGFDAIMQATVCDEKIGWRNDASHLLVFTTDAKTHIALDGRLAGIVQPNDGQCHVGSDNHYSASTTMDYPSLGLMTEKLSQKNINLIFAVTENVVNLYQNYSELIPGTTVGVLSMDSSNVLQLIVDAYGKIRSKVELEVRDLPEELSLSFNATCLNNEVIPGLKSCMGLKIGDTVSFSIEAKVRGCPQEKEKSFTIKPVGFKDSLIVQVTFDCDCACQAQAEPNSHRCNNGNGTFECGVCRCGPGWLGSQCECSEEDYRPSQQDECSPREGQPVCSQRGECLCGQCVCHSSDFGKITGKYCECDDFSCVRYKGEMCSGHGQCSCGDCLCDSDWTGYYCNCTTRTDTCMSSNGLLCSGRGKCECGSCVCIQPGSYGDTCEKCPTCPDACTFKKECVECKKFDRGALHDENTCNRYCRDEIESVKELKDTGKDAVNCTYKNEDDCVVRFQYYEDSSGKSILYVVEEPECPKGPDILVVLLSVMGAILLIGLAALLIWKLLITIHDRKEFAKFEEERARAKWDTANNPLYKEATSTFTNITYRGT

| IC50 | Structure (SMILES) |
| --- | --- |
| 30 nM | CNc1cccc(CCOc2ccc3c(CCC(=O)O)csc3c2)n1 [Example 1, 3-(6-{2-[6-(methylamino)-2-pyridyl]ethoxy}benzo [b]thiophen-3-yl)propanoic acid] |
| 8 nM | O=C(O)CCc1csc2cc(OCCc3ccc4c(n3)NCCC4)ccc12 [Example 2, 3-{6-[2-(5,6,7,8-Tetrahydro-[1,8]naphthyridin-2-yl)-ethoxy]-benzo[b]thiophen-3-yl}-propionic acid] |
| 33 nM | CNc1cccc(CCOc2ccc3c(CCC(=O)O)coc3c2)n1 [Example 3, 3-(6-{2-[6-(Methylamino)-2-pyridyl]ethoxy}benzo[b]furan-3-yl)propanoic acid] |
